Values after ≈ are worked out from the molar mass of the structure shown.
Molecular target: T1, CsnOU01 (GH family 46 chitosanase) (Microbacterium sp. OU01, UniProt A7KBW5)
T1 construct: about 28 kDa
T1 sequence (A7KBW5 26-266): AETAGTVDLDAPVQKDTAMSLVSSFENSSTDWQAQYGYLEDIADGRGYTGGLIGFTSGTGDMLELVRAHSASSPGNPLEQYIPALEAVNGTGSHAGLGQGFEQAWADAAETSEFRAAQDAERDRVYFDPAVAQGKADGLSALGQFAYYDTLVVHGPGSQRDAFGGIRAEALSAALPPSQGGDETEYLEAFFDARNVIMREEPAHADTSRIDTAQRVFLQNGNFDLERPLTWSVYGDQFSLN
Test: equilibrium adsorption to ligand-coupled Sepharose 6B, Scatchard analysis
Format: binding
Details: compound immobilised on Sepharose 6B via cyanuric chloride spacer (not the free sugar); Kd in mass concentration of enzyme; 20 mM Tris-HCl, pH 8.0
From the text: equilibrium adsorption to ligand-coupled Sepharose 6B, Scatchard analysis on CsnOU01 (GH family 46 chitosanase)

Compound | Kd [µg/mL]
N[C@H]1[C@H](O[C@H]2[C@H](O)[C@@H](N)C(O)O[C@@H]2CO)O[C@H](CO)[C@@H](O)[C@@H]1O (stereo partly drawn) [CHDS, chitodisaccharide] | 16.4 (≈ 48.2 µM)
chitotrisaccharide [CHTS] | 20.7
glucosamine | 88.5

From paper PMC6356299, “Design and Synthesis of a Chitodisaccharide-Based Affinity Resin for Chitosanases Purification” (Marine Drugs, 2019)
